Consider 22 compounds from patent US8268842B2, “Fused ring 4-oxopyrimidine derivative” (MSD K.K., priority 2004, dated 2012).

SMILES strings stand for the structures. Like-named read-outs stand apart in the source and are kept apart here.

A short description of data set [1]: Brain/cerebrospinal fluid activity test. It counts as in vivo, rat. The conditions noted are these: SD type male rats, 2 hours after oral administration (10 mg/kg); for concentration at 2 h: rat. As to the method: The test compound (the compound of Example 1) was administered orally or intravenously to SD type male rats (7-10 weeks old, 200-400 g), and exsanguination was performed from the abdominal aorta under ether anesthesia using a heparin treatment syringe at a predetermined time. The skin at the back of the head was cut open, pierced with a 30G dental needle between the cervical vertebrae, and inserted into the subarachnoid space. 50-100 μL of cerebrospinal fluid was extracted by a 1 mL syringe via a tube connected to the 30G needle, and the brain was extracted. A blood sample was centrifuged (4° C., 6000 rpm, 10 minutes), and three times the amount of ethanol (containing an internal reference) was added to the plasma and stirred. 2 mL of water was added to a brain sample, homogenized, a part was removed, and three times the amount of ethanol (containing an internal reference) was added and stirred. The cerebrospinal fluid was taken, three times the amount of ethanol (containing an internal reference) was added, and stirred. The above sample was left at −20° C. for 20 minutes, centrifuged (4° C., 12,000 g, 10 minutes), the supernatant liquid was analyzed by LC/MS/MS, and the concentration in plasma, brain and cerebrospinal fluid was measured by the relative calibration curve method.

In data set [2] the target is T1, human histamine H3 receptor (Homo sapiens, UniProt Q9Y5N1).
T1 construct: expressed in transfected cells; host or cells: HEK293 and CHO-K1
Put plainly: Histamine analog coupling inhibition test. It counts as binding. The text has this:
A cDNA sequence [International Patent Application WO00/3916 Specification No. 4] which encodes human histamine H3 receptor was cloned using the expression vectors pCR2.1, pEF1x (product of Invitrogen), and pCI-neo (product of Promega Inc.). The expression vector obtained was transfected to the host cells, HEK293 and CHO-K1 (American type culture collection), using the cationic lipid method [Proceedings of the National Academy of Sciences of the United States of America, Vol. 84, p. 7413 (1987), and histamine H3 receptor expression cells were thus obtained.
A film preparation made from the cells which represented the histamine H3 receptor, the test compound (the compound of Example 1) and 20,000 cpm of [3H]N-α-methylhistamine (product of NEN) were incubated in an assay buffer solution (50 mM Tris buffer solution, pH 7.4) at 25° C. for 2 hours, and filtered on a glass filter GF/C. After washing by 50 mM Tris buffer solution, pH7.4, the radioactivity on the glass filter was found. Non-specific linkages were measured in the presence of 10 microM thioperamide (product of SIGAM), and the 50% inhibition concentration (IC50 value) of the test compound with respect to specific N-α-methylhistamine linkages was found (Molecular Pharmacology, Vol. 55, p. 1101 (1999)).

Data set [3] concerns the target T2, histamine H3 receptor (Rattus norvegicus, UniProt Q9QYN8).
T2 construct: from tissue; host or cells: living male SD rat (brain, third ventricle agonist administration)
Nature of the data set: Antagonism test of drinking behavior induced by R-α-methylhistamine, a histamine H3 receptor selective agonist. It is filed as in vivo. The conditions noted are these: male SD rat, 10 mg/kg oral 2 hours before R-α-methylhistamine, measured 1 hour after. As to the method:
Under ketamine/xylazine anaesthesia (74 mg/kg and 11 mg/kg intraperitoneal single-dose administration), a chronic guide cannula (26 gauge, length 11 mm) was inserted in the ventriculus tertius of a male SD rat (7-10 weeks old, 200-300 g) using a brain stereotaxis apparatus, and fixed by dental resin. The position of the tip of the guide cannula was 2.2 mm back from the bregma, and at a depth of 8 mm from the skull surface on the median line. After about 1 week convalescence, R-α-methylhistamine (0.3 μg/1 μL/head, 30% propylene glycol solution) was administered to the ventriculus tertius. The test compound (the compound of Example 1) suspended in 0.5% methylcellulose aqueous solution was administered orally 2 hours before the R-α-methylhistamine administration, and the drinking water amount was measured 1 hour after R-α-methylhistamine administration.

A short description of data set [4]: Kinetic test (plasma concentration after oral or intravenous administration). It is filed as in vivo. The conditions noted are these: rat, SD type male rats, fasted overnight. As to the method:
The test compound (the compound of Example 1) was administered orally or intravenously to SD type male rats (7-10 weeks old, 200-400 g) which had abstained from food overnight, and about 100 μL of blood was collected from a caudal vein using a heparinized capillary tube at a predetermined time. The blood was centrifuged (4° C., 6000 rpm, 10 minutes), and plasma was obtained. Three times the amount of ethanol (containing an internal reference) was added to the plasma, stirred, left for 20 minutes at −20° C., and centrifuged (4° C., 10,000 rpm, 10 minutes). The supernatant liquid was analyzed by LC/MS/MS, and the plasma concentration was measured by the relative calibration curve method.

T1 sequence (Q9Y5N1 whole entry): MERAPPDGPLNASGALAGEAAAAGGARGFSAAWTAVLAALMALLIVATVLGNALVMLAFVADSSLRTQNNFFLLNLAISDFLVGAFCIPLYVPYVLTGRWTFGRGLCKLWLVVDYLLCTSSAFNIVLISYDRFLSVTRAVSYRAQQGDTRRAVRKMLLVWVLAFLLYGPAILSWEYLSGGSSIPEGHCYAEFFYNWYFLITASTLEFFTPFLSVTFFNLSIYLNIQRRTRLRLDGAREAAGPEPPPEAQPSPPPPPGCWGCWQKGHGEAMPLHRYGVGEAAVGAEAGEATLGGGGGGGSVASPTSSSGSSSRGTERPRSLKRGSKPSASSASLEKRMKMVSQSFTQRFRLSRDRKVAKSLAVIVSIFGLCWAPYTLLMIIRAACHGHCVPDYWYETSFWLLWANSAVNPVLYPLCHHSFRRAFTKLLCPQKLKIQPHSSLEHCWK
T2 sequence (Q9QYN8 whole entry): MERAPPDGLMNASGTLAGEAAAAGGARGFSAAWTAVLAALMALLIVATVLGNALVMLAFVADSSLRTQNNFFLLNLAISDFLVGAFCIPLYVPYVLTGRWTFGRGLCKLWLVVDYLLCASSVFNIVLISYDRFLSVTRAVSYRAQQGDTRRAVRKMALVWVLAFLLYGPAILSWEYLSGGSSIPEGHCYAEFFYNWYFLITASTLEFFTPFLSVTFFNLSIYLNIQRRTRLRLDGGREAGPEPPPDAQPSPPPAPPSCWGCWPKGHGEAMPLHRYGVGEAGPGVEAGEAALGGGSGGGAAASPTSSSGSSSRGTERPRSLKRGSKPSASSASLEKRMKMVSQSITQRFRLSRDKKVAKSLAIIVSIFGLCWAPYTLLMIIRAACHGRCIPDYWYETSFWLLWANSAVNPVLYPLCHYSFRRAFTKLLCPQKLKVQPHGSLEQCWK

By melting point is commonly meant the temperature, or range, at which the solid turns liquid. The compound `Cc1nc2cccc(F)c2c(=O)n1-c1ccc(OCCCN2CCC[C@H]2C)cc1` [Example 260, 5-fluoro-2-methyl-3-(4-{3-[(2R)-2-methylpyrrolidin-1-yl]propoxy}phenyl)-4(3H)-quinazolinone] displayed a melting point of 125 to 127 °C. In the case of `Cc1nc2ccncc2c(=O)n1-c1ccc(OC2CCN(C3CCCC3)CC2)cc1` [Example 101, 3-{4-[(1-cyclopentyl-4-piperidinyl)oxy]phenyl}-2-methylpyrido[4,3-d]pyrimidin-4(3H)-one], the melting point fell in the range of 140 to 143 °C.

With `CCc1nc2ncccc2c(=O)n1-c1ccc(OC2CCN(C3CCC3)CC2)cc1` [Example 111, 3-{4-[(1-cyclobutyl-4-piperidinyl)oxy]phenyl}-2-ethylpyrido[2,3-d]pyrimidin-4(3H)-one], the melting point lay within 146 to 148 °C.

The compound `COc1ccc2nc(C)n(-c3ccc(OCCCN4CCC[C@H]4C)cc3)c(=O)c2c1` [Example 172, 6-methoxy-2-methyl-3-(4-{3-[(2R)-2-methylpyrrolidin-1-yl]propoxy}phenyl)-4(3H)-quinazolinone] registered a melting point of 106 to 108 °C. The same measure, in the same setting: next, `Cc1nc2ncccc2c(=O)n1-c1ccc(OCCCN2CCC[C@H](C)C2)cc1.Cl`: 255 to 262 °C; `COc1ccc2nc(C)n(-c3ccc(OC4CCN(C5CCC5)CC4)cc3)c(=O)c2c1` [Example 228, 3-{4-[(1-cyclobutylpiperidin-4-yl)oxy]phenyl}-6-methoxy-2-methyl-4(3H)-quinazolinone]: 171 to 173 °C. Regarding `Cc1nc2cc(F)ccc2c(=O)n1-c1ccc(OC2CCN(C3CCC3)CC2)cc1` [Example 233, 3-{4-[(1-cyclobutylpiperidin-4-yl)oxy]phenyl}-7-fluoro-2-methyl-4(3H)-quinazolinone], the melting point lay within 163 to 166 °C. Take `Cc1nc2ccc(F)cc2c(=O)n1-c1ccc(OC2CCN(C3CCC3)CC2)cc1` [Example 232, 3-{4-[(1-cyclobutylpiperidin-4-yl)oxy]phenyl}-6-fluoro-2-methyl-4(3H)-quinazolinone]: the melting point lay in the range of 122 to 125 °C. In the case of `COc1ccc2c(=O)n(-c3ccc(OCCCN4CCC[C@H](C)C4)cc3)c(C)nc2c1` [Example 170, 7-methoxy-2-methyl-3-(4-{3-[(3S)-3-methyl-piperidin-1-yl]propoxy}phenyl)-4(3H)-quinazolinone], the melting point lay within 94 to 96 °C.

In turn, `COc1cc2c(=O)n(-c3ccc(OCCCN4CCCCC4)cc3)c(C)nc2cn1` [Example 199, 6-methoxy-2-methyl-3-[4-(3-piperidin-1-ylpropoxy)phenyl]pyrido[3,4-d]pyrimidin-4(3H)-one] showed a melting point of 145 to 147 °C.

On to `COc1cc2c(=O)n(-c3ccc(OCCCN4CCCC4)cc3)c(C)nc2cn1` [Example 200, 6-methoxy-2-methyl-3-[4-(3-pyrrolidin-1-ylpropoxy)phenyl]pyrido[3,4-d]-pyrimidin-4(3H)-one], for which the melting point was 123 to 126 °C.

Usually bioavailability stands for the share of a dose that reaches the circulation, judged against a reference dose that is usually intravenous. As usually defined, the half-life is the time needed for the level to fall by half in the phase considered. `CCc1nc2ccccc2c(=O)n1-c1ccc(OCCCN2CCCCC2)cc1` [Example 1, 2-ethyl-3-{4-[3-(1-piperidinyl)propoxy]phenyl}-4(3H)-quinazolinone]: in data set [1], the intracerebral concentration was 3.16 nmol/g. For the same compound, the concentration at 2 h turned out to be 142 nM in data set [1] (cerebrospinal fluid, read-out: cerebrospinal fluid concentration) and 2320 nM in data set [1] (plasma, read-out: plasma concentration). Further, the IC50 in data set [2] ([3H]N-α-methylhistamine, preparation from histamine H3 receptor expression cells, 50 mM Tris pH 7.4, 25° C., 2 hours, read-out: 50% inhibition concentration (IC50 value) with respect to specific N-α-methylhistamine linkages) came out at 15 nM. Also, the “binding of N-α-methylhistamine to the histamine H3 receptor” value in data set [2] (summary in words of the binding test) is “strongly prevented binding”. Moreover, the “increase in drinking water amount due to R-α-methylhistamine administered to the ventriculus tertius” value in data set [3] is “significantly suppressed”. This compound had a bioavailability in data set [4] of 60%. Moreover, in data set [4] (read-out: half-life in blood (converted)), the half-life was 6.3 h.

For the compound `COc1ccc2nc(C)n(-c3ccc(OCCCN4CCC[C@@H]4C)cc3)c(=O)c2c1` [Example 144, 6-methoxy-2-methyl-3-(4-{3-[(2S)-2-methylpyrrolidin-1-yl]propoxy}phenyl)-4(3H)-quinazolinone], the melting point is 102 to 106 °C.

For the compound `CCc1nc2ncccc2c(=O)n1-c1ccc(OCCCN2CCC[C@H](C)C2)cc1.Cl`, the melting point was 245 to 252 °C.

Take `CCc1nc2ccncc2c(=O)n1-c1ccc(OC2CCN(C3CCC3)CC2)cc1` [Example 109, 3-{4-[(1-cyclobutyl-4-piperidinyl)oxy]phenyl}-2-ethylpyrido[4,3-d]pyrimidin-4(3H)-one]: the melting point is 186 to 189 °C.

For `Cc1nc2ccncc2c(=O)n1-c1ccc(OCCCN2CCC[C@H]2C)cc1` [Example 266, 2-methyl-3-(4-{3-[(2R)-2-methylpyrrolidin-1-yl]propoxy}phenyl)pyrido[4,3-d]pyrimidin-4(3H)-one], the melting point was 238 to 250 °C. In turn, `Cc1nc2cnccc2c(=O)n1-c1ccc(OC2CCN(C3CCC3)CC2)cc1` [Example 114, 3-{4-[(1-cyclobutyl-4-piperidinyl)oxy]phenyl}-2-methylpyrido[3,4-d]pyrimidin-4(3H)-one] yielded a melting point of 169 to 171 °C. Regarding `Cc1nc2c(F)cccc2c(=O)n1-c1ccc(OC2CCN(C3CCC3)CC2)cc1` [Example 242, 3-{4-[(1-cyclobutylpiperidin-4-yl)oxy]phenyl}-8-fluoro-2-methyl-4(3H)-quinazolinone], the melting point was 177 to 179 °C.

The compound `COc1cccc2nc(C)n(-c3ccc(OCCCN4CCC[C@H](C)C4)cc3)c(=O)c12` [Example 164, 5-methoxy-2-methyl-3-(4-{3-[(3S)-3-methylpiperidin-1-yl]propoxy}phenyl)-4(3H)-quinazolinone] displayed a melting point of 144 to 146 °C. As to `COc1ccc2nc(C)n(-c3ccc(OCCCN4CCCCC4)cc3)c(=O)c2c1` [Example 36, 6-methoxy-2-methyl-3-{4-[3-(1-piperidinyl)propoxy]phenyl}-4(3H)-quinazolinone], the melting point was in the range of 136 to 138 °C. On to `Cc1nc2cccc(F)c2c(=O)n1-c1ccc(OCCCN2CCCCC2)cc1` [Example 26, 5-fluoro-2-methyl-3-{4-[3-(1-piperidinyl)propoxy]phenyl}-4(3H)-quinazolinone], for which the melting point fell in the range of 141 to 145 °C. Compound `Cc1nc2cnc(F)cc2c(=O)n1-c1ccc(OC2CCN(C3CCC3)CC2)cc1` [Example 230, 3-{4-[(1-cyclobutyl-piperidin-4-yl)oxy]phenyl}-6-fluoro-2-methylpyrido[3,4-d]pyrimidin-4(3H)-one] showed a melting point of 161 to 163 °C.
